Experimental data: US20160282364A1, “ASSAY FOR INSULIN-DEGRADING ENZYME (IDE) INHIBITORS” (PRESIDENT AND FELLOWS OF HARVARD COLLEGE, priority 2013, published 2016)
Where “and” joins values, the source holds several entries; their conditions need not be identical. Identical values can stand only once. Like-named read-outs stand apart in the source and are kept apart here. Ends that are not written are not given here.

Assays:
[1] = tested on: IDE; conditions: inhibition of insulin degradation, cited from earlier work
[2] = tested on: IDE; assay: Literature survey of IDE substrates, in vitro degradation kinetics; type: biochemical; conditions: KM estimated based on IC50 for inhibition of insulin degradation
[3] = tested on: IDE; conditions: cited from earlier work; for Degradation: degradation kinetics compared to insulin; for Km / kcat / KM: IDE substrate
[4] = target: T1, hIDE WT (Homo sapiens, UniProt P14735); assay: Small molecule-enzyme mutant complementation study, wild type; type: biochemical
T1 construct: The reported N-His6-tagged human IDE42-1019 construct; made in house; host or cells: E. coli Rosetta 2 (DE3) pLysS
Description: (§1) Protease assays with fluorogenic peptide substrates. […] All assay data points were obtained in duplicate.
(§2) Site-directed mutagenesis, expression, and purification of human IDE. The reported N-His6-tagged human IDE42-1019 construct was introduced in the expression plasmid pTrcHis-A (Invitrogen) using primers for uracil-specific excision reactions (USER) by Taq (NEB) and Pfu polymerases (PfuTurbo CX®, Agilent). The IDE gene was amplified with the primers 5′-[…]-dU-[…] and 5′-[…] G-dU-[…] (underlined sequences represent overhangs, and italics highlight the PCR priming sequence). Similarly, the pTrcHis-A vector was amplified for USER cloning with the primers 5′-[…] TGA-dU-[…] CCC and 5′-[…]-dU-[…]. Mutant IDE constructs were generated by amplifying the full vector construct with USER cloning primers introducing a mutant overhang (Table 5).
(§3) All PCR products were purified on microcentrifuge membrane columns (MinElute®, Qiagen) and quantified by UV absorbance (NanoDrop). Each fragment (0.2 pmol) was combined in a 10 μL reaction mixture containing 20 units DpnI (NEB), 0.75 units of USER mix (Endonuclease VIII and Uracil-DNA Glycosylase, NEB), 20 mM Tris-acetate, 50 mM potassium acetate, 10 mM magnesium acetate, 1 mM dithiothreitol at pH 7.9 (1× NEBuffer 4). The reactions were incubated at 37° C. for 45 min, followed by heating to 80° C. and slow cooling to 30° C. (0.2° C./s). The hybridized constructs were directly used for heat-shock transformation of chemically competent NEB turbo E. coli cells according to the manufacturer's instructions. Transformants were selected on carbenicillin LB agar, and isolated colonies were cultured overnight in 2 mL LB.
(§4) The plasmid was extracted using a microcentrifuge membrane column kit (Miniprep®, Qiagen), and the sequence of genes and vector junctions were confirmed by Sanger sequencing (Table 6). The plasmid constructs were transformed by heat-shock into chemically-competent expression strain Rosetta 2 (DE3) pLysS E. coli cells (EMD Millipore), and selected on carbenicillin/chloramphenicol LB agar. Cells transformed with IDE pTrcHis A constructs were cultured overnight at 37° C. in 2 XYT media (31 g in 1 L) containing 100 μg/mL ampicillin and 34 μg/mL chloramphenicol. Expression of His6-tagged IDE proteins was induced when the culture measured OD600 ˜0.6 by addition of isopropyl-β-D-1-thiogalactopyranoside (IPTG) to 1 mM final concentration, incubated overnight at 37° C., followed by centrifugation at 10,000 g for 30 min at 4° C.
(§5) Recombinant His6-tagged proteins were purified by Ni(II)-affinity chromatography (IMAC sepharose beads, GE Healthcare®) according to the manufacturer's instructions. The cell pellets were resuspended in pH 8.0 buffer containing 50 mM phosphate, 300 mM NaCl, 10 mM imidazole, 1% Triton X-100 and 1 mM tris(2-carboxyethyl)phosphine hydrochloride (TCEP), and were lysed by probe sonication for 4 min at 4° C., followed by clearing of cell debris by centrifugation at 10,000 g for 25 min at 4° C. The supernatant was incubated with Ni(II)-doped IMAC resin (2 mL) for 3 h at 4° C. The resin was washed twice with the cell resuspension/lysis buffer, and three times with pH 8.0 buffer containing 50 mM phosphate, 300 mM NaCl,50 mM imidazole and 1 mM TCEP. Elution was performed in 2 mL aliquots by raising the imidazole concentration to 250 mM and subsequently to 500 mM in the previous buffer. The fractions were combined and the buffer was exchanged to the recommended IDE buffer (R&D) using spin columns with 100 KDa molecular weight cut off membranes (Millipore). Protein yields were typically ˜10 μg/L, and >90% purity based on gel electrophoresis analysis (Coomassie stained).

[5] = target: IDE (Homo sapiens, UniProt P14735); assay: Protease assay with fluorogenic peptide substrate Mca-[…](Dnp)-OH (IDE species not given); type: biochemical; parameters: The proteases IDE42-1019, recombinant human IDE42-1019 (R&D Systems); conditions: heavy-labeled vs 6bK
Method: All data points and error bars represent mean±SEM. Significance tests were performed using two-tail Student's t-test, and significance levels shown in the figures are p<0.05 (*) or p<0.01 (**) versus the vehicle-only control group. The in vitro selection of the DNA-templated macrocycle libraryl^16,17 used 20 μg His6-tagged mouse IDE immobilized on cobalt magnetic beads (Dynabeads, Invitrogen). IDE proteolytic activity was assayed with fluorogenic peptide Mca-[…](Dnp)-OH (R&D). IDE inhibition was confirmed using an anti-insulin antibody time-resolved FRET assay (Cysbio), and using an LCMS assay for CGRP cleavage fragments CGRP1-17 and CGRP18-37 in plasma^18. […] Protease assays with fluorogenic peptide substrates. […] (R&D). All assay data points were obtained in duplicate.

[6] = target: T2, hIDE F202R (Homo sapiens, UniProt P14735, F202R); assay: Small molecule-enzyme mutant complementation study; type: biochemical; conditions: F202R vs hIDE WT, batch 2
T2 construct: The reported N-His6-tagged human IDE42-1019 construct; made in house; host or cells: E. coli Rosetta 2 (DE3) pLysS
Description: as §1, §2, §3, §4, §5

[7] = target: T3, hIDE W199F (Homo sapiens, UniProt P14735, W199F); assay: Small molecule-enzyme mutant complementation study; type: biochemical; conditions: W199F vs hIDE WT, batch 2
T3 construct: The reported N-His6-tagged human IDE42-1019 construct; made in house; host or cells: E. coli Rosetta 2 (DE3) pLysS
Description: as §1, §2, §3, §4, §5

[8] = target: T4, hIDE I310R (Homo sapiens, UniProt P14735, I310R); assay: Small molecule-enzyme mutant complementation study; type: biochemical; conditions: I310R vs hIDE WT, batch 2
T4 construct: The reported N-His6-tagged human IDE42-1019 construct; made in house; host or cells: E. coli Rosetta 2 (DE3) pLysS
Description: as §1, §2, §3, §4, §5

[9] = target: T5, hIDE F202L (Homo sapiens, UniProt P14735, F202L); assay: Small molecule-enzyme mutant complementation study; type: biochemical; conditions: F202L vs hIDE WT, batch 1
T5 construct: The reported N-His6-tagged human IDE42-1019 construct; made in house; host or cells: E. coli Rosetta 2 (DE3) pLysS
Description: as §1, §2, §3, §4, §5

[10] = target: T6, hIDE A198T (Homo sapiens, UniProt P14735, A198T); assay: Small molecule-enzyme mutant complementation study; type: biochemical; conditions: A198T vs hIDE WT, batch 2
T6 construct: The reported N-His6-tagged human IDE42-1019 construct; made in house; host or cells: E. coli Rosetta 2 (DE3) pLysS
Description: as §1, §2, §3, §4, §5

[11] = target: T7, hIDE K364A (Homo sapiens, UniProt P14735, K364A); assay: Small molecule-enzyme mutant complementation study; type: biochemical; conditions: K364A vs hIDE WT, batch 2
T7 construct: The reported N-His6-tagged human IDE42-1019 construct was introduced in the expression plasmid pTrcHis-A; made in house; host or cells: E. coli Rosetta 2 (DE3) pLysS
Description: as §1, §2, §3, §4, §5

T1 sequence (P14735 42-1019): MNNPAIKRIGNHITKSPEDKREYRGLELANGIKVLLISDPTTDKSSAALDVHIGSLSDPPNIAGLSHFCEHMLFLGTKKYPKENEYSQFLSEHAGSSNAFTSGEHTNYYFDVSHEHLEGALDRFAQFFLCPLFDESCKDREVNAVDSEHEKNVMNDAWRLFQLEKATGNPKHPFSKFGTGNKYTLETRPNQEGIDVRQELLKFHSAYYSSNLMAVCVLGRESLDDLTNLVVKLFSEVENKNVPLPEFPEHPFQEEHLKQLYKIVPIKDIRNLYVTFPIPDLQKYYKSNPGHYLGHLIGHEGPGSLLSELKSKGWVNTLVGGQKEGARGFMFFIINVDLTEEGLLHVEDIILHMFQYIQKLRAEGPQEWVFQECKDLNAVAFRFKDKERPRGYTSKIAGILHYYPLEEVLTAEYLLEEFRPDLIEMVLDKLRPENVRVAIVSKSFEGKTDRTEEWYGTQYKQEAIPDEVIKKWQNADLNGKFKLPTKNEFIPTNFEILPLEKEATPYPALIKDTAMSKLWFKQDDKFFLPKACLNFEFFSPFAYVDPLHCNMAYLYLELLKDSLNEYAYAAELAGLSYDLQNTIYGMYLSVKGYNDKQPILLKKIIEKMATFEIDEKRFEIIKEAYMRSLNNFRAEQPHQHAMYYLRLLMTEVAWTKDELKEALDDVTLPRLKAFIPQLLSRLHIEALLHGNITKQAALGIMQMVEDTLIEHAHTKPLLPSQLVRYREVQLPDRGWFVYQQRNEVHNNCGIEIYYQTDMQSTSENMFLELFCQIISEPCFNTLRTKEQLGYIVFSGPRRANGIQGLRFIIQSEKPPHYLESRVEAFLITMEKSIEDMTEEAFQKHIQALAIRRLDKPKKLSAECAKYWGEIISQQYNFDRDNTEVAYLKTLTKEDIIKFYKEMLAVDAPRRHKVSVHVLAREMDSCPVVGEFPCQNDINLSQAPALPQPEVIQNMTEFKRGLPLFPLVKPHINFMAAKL
T6 sequence (P14735 42-1019 A198T): as the sequence (P14735 42-1019) above, with A157T counted along it
T5 sequence (P14735 42-1019 F202L): as the sequence (P14735 42-1019) above, with F161L counted along it
T3 sequence (P14735 42-1019 W199F): as the sequence (P14735 42-1019) above, with W158F counted along it
T4 sequence (P14735 42-1019 I310R): as the sequence (P14735 42-1019) above, with I269R counted along it
T2 sequence (P14735 42-1019 F202R): as the sequence (P14735 42-1019) above, with F161R counted along it
T7 sequence (P14735 42-1019 K364A): as the sequence (P14735 42-1019) above, with K323A counted along it
IDE (Homo sapiens, UniProt P14735), sequence (P14735 42-1019): as the sequence (P14735 42-1019) above

Row | Compound | Degradation [3] | Km [3] | kcat [3] | also measured
1 | transforming growth factor-alpha [TGF-α] | Fast | – | – | IC50 ([1]; read-out: IC50): 80 nM; Km [2]: 0.15 µM
2 | dynorphin A (1-8) (YGGFLRRI; Dynorphin A(1-8); UniProt P01213 207-214, looked up) [IDE substrate in vitro] | – | 63.5 µM | 0.011 s⁻¹ | –
3 | relaxin-3 | Fast | – | – | IC50 ([1]; read-out: IC50): 182 nM; Km [2]: 0.36 µM
4 | CC(C)(C)c1ccc(CC2NC(=O)C(CC3CCCCC3)NC(=O)C(CCC(N)=O)NC(=O)C=CC(=O)NC(C(N)=O)CCCCNC2=O)cc1 (centres unmarked) [Compound 9] | – | – | – | IC50 shift ([4]; batch 1 (reference)): 1.0 fold
5 | growth hormone releasing factor (1-29) | Slow | 11.9 µM | 0.39 s⁻¹ | –
6 | glucagon | Slow | 3.5 µM and 3.46 µM | 0.633 s⁻¹ and 0.642 s⁻¹ | IC50 [1]: weak
7 | atrial natriuretic peptide [atrial NP (ANP)] | Fast | 0.06 µM | – | –
8 | relaxin | Fast | – | – | IC50 ([1]; read-out: IC50): 54 nM; Km [2]: 0.11 µM
9 | β-endorphin (1-31) | Slow | 13 µM | 0.35 s⁻¹ | –
10 | NC(=O)C1CCCCNC(=O)C(Cc2ccc(C(=O)c3ccccc3)cc2)NC(=O)C(CC2CCCCC2)N[13C](=O)[13CH]([13CH2][13CH2][13CH2][13CH2][15NH2])[15NH]C(=O)C=CC(=O)N1 (centres unmarked) [heavy 6bK] | – | – | – | IC50 compared with 6bK [5]: identical
11 | somatostatin-14 | Slow | 7.5 µM | 0.38 s⁻¹ | –
12 | bradykinin (RPPGFSPFR; Bradykinin; UniProt P01042 381-389, looked up) [IDE substrate in vitro] | Slow | 4.2 µM | – | –
13 | dynorphin B (1-13) | – | 18.3 µM | 0.252 s⁻¹ | –
14 | insulin | Fast | < 0.03 µM | 0.0253 s⁻¹ | –
15 | dynorphin A (1-9) | – | 60.5 µM | 0.0055 s⁻¹ | –
16 | kallidin | Slow | 7.3 µM | – | –
17 | B-type natriuretic peptide [B-type NP (BNP)] | Slow | – | – | IC50 ([1]; read-out: IC50): > 1000 nM; KM [3]: weak
18 | amylin (KCNTATCATQRLANFLVHSSNNFGAILSSTNVGSNTY; not fully specified (C-terminus, bridges); cysteine pairing not given here; UniProt P10997 34-70, looked up) [IDE substrate in vitro] | Medium | ~0.3 µM | – | IC50 ([1]; read-out: IC50): 160 nM; Km [2]: 0.3 µM
19 | insulin-like growth factor-2 [IGF-2] | Fast | – | – | IC50 ([1]; read-out: IC50): 60 nM; Km [2]: 0.1 µM
20 | dynorphin A (1-13) (YGGFLRRIRPKLK; Dynorphin A(1-13); UniProt P01213 207-219, looked up) [IDE substrate in vitro] | – | 40.6 µM | 0.0623 s⁻¹ | –
21 | amyloid-β peptide(40/42) [Aβ (40, 42)] | Fast | 1.23 µM | 0.867 s⁻¹ | –
22 | dynorphin A (1-17) | – | 37.4 µM | 0.307 s⁻¹ | –
23 | pancreastatin (1-49) (SEALAVDGAGKPGAEEAQDPEGKGEQEHSQQKEEEEEMAVVPQGLFRGG; Pancreastatin; UniProt P10645 272-320, looked up, fragment) [IDE substrate in vitro] | Slow | 41.7 µM | 0.177 s⁻¹ | –
24 | dynorphin B (1-9) (YGGFLRRQF; Rimorphin; UniProt P01213 226-234, looked up, fragment) [IDE substrate in vitro] | – | 26.8 µM | 0.172 s⁻¹ | –
25 | insulin-like growth factor-1 [IGF-1] | Slow | – | – | KM [3]: Weak
26 | dynorphin A (1-10) | – | 39.4 µM | 0.0623 s⁻¹ | –
27 | CC(C)CC1NC(=O)C(CCC(N)=O)NC(=O)C=CC(=O)NC(C(N)=O)CCCCNC(=O)C(Cc2ccc(C(=O)c3ccccc3)cc2)NC1=O (centres unmarked) [Compound 13] | – | – | – | IC50 shift [6]: 4.1 fold; IC50 shift [7]: 3.2 fold; IC50 shift [8]: 0.7 fold; IC50 shift [9]: 2.3 fold; IC50 shift [10]: 13.6 fold; IC50 shift [11]: 10.0 fold; IC50 shift ([4]; batch 1 (reference)): 1.0 fold; IC50 shift ([4]; batch 2 (reference)): 1.0 fold; IC50 shift ([4]; batch 3 (reference)): 1.0 fold
